# Patent US11266636B2, “Maleate salt of the free base of N-[5-(aminosulfonyl)-4-methyl-1,3-thiazol-2-yl]-N-methyl-2-[4-(2-pyridinyl)-phenyl]-acetamide, pharmaceutical formulations, methods of manufacture and uses thereof for the treatment of herpes viruses” (priority 2016, dated 2022)
# Tests used:
# herpes simplex virus-2 = details: comparison of literature values; cited from earlier work
# [1] = Solubility determination in different pharmaceutical excipients at ambient temperature; details: for solubility at 22 h: thermodynamic from solid
# Protocol: Dimethyl sulfoxide (DMSO) served as control solvent.
# Suspensions were prepared by weighing the test items into glass vials and addition of the appropriate solvent. The suspensions were shortly vortex-mixed and shaken over-head for 22 hours. Aliquots (500 μL) were transferred to filtration devices with polyvinylidene fluoride membranes and the solid matter was separated by centrifugation. The filtrates were diluted (1:100) in acetonitrile/methanol/water/acetic acid (25+25+50+0.5, v+v+v+v).
# Control solutions of all salts were prepared in DMSO at a concentration of 20 mg/mL and treated as described above. The solubility was determined by concentration measurement of the diluted filtrate of the oversaturated solutions.
# Chromatographic separation was performed on a Phenomenex Luna C18(2), 5 μm column (150×2 mm) by gradient elution using 1% acetic acid and acetonitrile/methanol (1+1, v+v) containing 1% acetic acid. For detection, a diode-array detector was used. Absorption was recorded at a wavelength of 300 nm. A detailed method description was filed in the raw data folder.
# [2] = Solubility in water and resulting pH; assay type: physicochemical; details: for solubility at 22 h: water, thermodynamic from solid
# Protocol: Additionally, the solubility of the free base of pritelivir and its aforementioned salts in water was determined and the resulting pH was measured.
# For detection, a diode-array detector was used. Absorption was recorded at a wavelength of 300 nm.
# [3] = Short-term stability in pharmaceutical excipients over two weeks (ambient temperature and 50° C.); assay type: physicochemical; details: for Stability in polyethylene glycol (in words): two weeks storage at 50° C.
# Protocol: Additionally, the solubility of the free base of pritelivir and its aforementioned salts in water was determined and the resulting pH was measured. […] For detection, a diode-array detector was used. Absorption was recorded at a wavelength of 300 nm. All calculations were carried out with Microsoft Excel 2010. Mean data are given as arithmetic means. Recoveries were calculated in comparison to the measured start concentration (t0).
# [4] = Relative solubility in simulated gastric and intestinal fluids (FaSSGF, FaSSIF, FeSSIF); assay type: physicochemical; details: 2 hours; for Relative solubility in FaSSIF: fasted state simulated intestinal fluid, pH 6.5, 37° C.; for Relative solubility in FeSSIF: fed state simulated intestinal fluid, pH 5, 37° C.
# Protocol: The pH was adjusted to 6.5 by addition of 1 N hydrochloric acid.
# The pH was adjusted to 5 by addition of 1 N hydrochloric acid.
# Suspensions of the mono ethane sulfonate salt, the maleate salt, the mono benzene sulfonate salt, the hemi ethane-1,2-disulfonate, the mesylate salt or the pritelivir free base were prepared as triplicates by weighing approximately 12 mg test item and addition of 600 μL FaSSGF, FaSSIF or FeSSIF (final concentration 20 mg/mL). The suspensions were incubated at 37° C. Aliquots (100 μL) were transferred into centrifugation devices (polyvinylidene difluoride membrane, 0.2 μm) for removal of solid matter (10 minutes at approximately 15000×g and 37° C.) after 0, 0.5, 1 and 2 hours. FaSSGF filtrates were diluted in acetonitrile to a final dilution of 1:1000. FaSSIF filtrates were diluted in acetonitrile to a final dilution of 1:50 and FeSSIF filtrates to a final dilution of 1:100.
# The samples were analyzed for their content of the free base of pritelivir. […] As hydrolysis products were not determined only relative solubility was used for further evaluations of the results.
# [5] = Photostability (xenon lamp, ca. 2000 Wh/m^2, 29 hours, >310 nm), solids and acidic solutions; assay type: physicochemical; details: 0.1 M hydrochloric acid/acetonitrile (75+25)
# Protocol: The compounds were exposed as solids and dissolved in 0.1 M hydrochloric acid/acetonitrile (75+25, v+v) at a target concentration of 0.3 mg/mL. Corresponding dark control samples were prepared and placed in UV-light protected vials in the irradiation chamber to keep the ambient conditions equivalent. Additionally, untreated solids were dissolved and analyzed as reference samples. Two samples were prepared from each solid test item. Approximately 20 mg of each test item (corrected for free base) was weighed into quartz glass vials. A second aliquot was weighed into light protected glass vials (dark control). Both samples were placed inside the irradiation chamber. […] Two aliquots were prepared (irradiated and dark control sample). The dark control samples were stored inside the irradiation chamber in closed and light protected glass vials, while the photostressed solutions were stored in quartz flasks, equipped only with a loose quartz glass cover. During irradiation, the samples were partially evaporated due to heat production inside the irradiation chamber. The extent of evaporation was variable from sample to sample (the sulphate salt of pritelivir free base was almost completely evaporated). […] The samples (solutions and solid state) were irradiated with a xenon lamp at […] through a glass filter for 29 hours (total applied dose of UV-light ca. 2000 Wh/m^2). The instrument used was a Suntest CPS+ (Atlas). By the use of the glass filter, only wavelengths >310 nm were irradiated, leading to simulation of the ID65 standard (indoor indirect daylight standard). […] The recorded average chamber heat temperature was 38° C. […] The % peak area was determined for the pritelivir free base in all tested samples. […] Absorption was recorded at a wavelength of 280 nm. […] The degree of decomposition was determined by chromatographic separation of (UV-active) degradation products and by determination of the respective percentage of the total peak area (% total peak area) per chromatogram. As salts dissociate in solution, the peak area of the pritelivir free base was determined in all samples.
# HSV-2 = details: once daily suppressive therapy; cited from earlier work
# [6] = 30% Captisol, aqueous with cosolvent or surfactant or cyclodextrin, Solubility in 30% Captisol, ambient temperature, 22 hours shaking
# [7] = 30% hydroxypropyl-β-cyclodextrin (HP-beta CD), aqueous with cosolvent or surfactant or cyclodextrin, Solubility in 30% HP-beta CD, 30% Hydroxypropyl-β-cyclodextrin, ambient temperature
# [8] = polyethylene glycol (PEG 400), organic solvent or mixture, Solubility in polyethylene glycol (PEG 400), PEG 400, ambient temperature
# [9] = propylene glycol, organic solvent or mixture, Solubility in propylene glycol (PG), ambient temperature
molecule,measurement,setting,value
C[C@H](Cn1cnc2c(N)ncnc21)OCP(=O)(O)O [Tenofovir],IC50-values compared to the maleate salt,herpes simplex virus-2,significantly higher
"Cc1nc(N(C)C(=O)Cc2ccc(-c3ccccn3)cc2)sc1S(N)(=O)=O [free base of pritelivir, N-[5-(aminosulfonyl)-4-methyl-1,3-thiazol-2-yl]-N-methyl-2-[4-(2-pyridinyl)-phenyl]-acetamide]",solubility at 22 h,[1]; [6],1790 µg/mL
same,solubility at 22 h,[1]; [7],1910 µg/mL
same,solubility at 22 h,[1]; [8],89600 µg/mL
same,solubility at 22 h,[2],1.3 µg/mL
same,"Stability in ethanol, PEG and propylene glycol","[3]; two weeks, ambient temperature",slight decrease
"Cc1nc(N(C)C(=O)Cc2ccc(-c3ccccn3)cc2)sc1S(N)(=O)=O.O=C(O)/C=C\C(=O)O [maleate salt, maleate salt of the free base of N-[5-(amino-sulfonyl)-4-methyl-1,3-thiazol-2-yl]-N-methyl-2-[4-(2-pyridinyl)phenyl]acetamide]",solubility at 22 h,[1]; [6],24500 µg/mL
same,solubility at 22 h,[1]; [7],24100 µg/mL
same,solubility at 22 h,"[1]; ethanol, organic solvent or mixture, Solubility in ethanol, ambient temperature",439 µg/mL
same,solubility at 22 h,[1]; [8],32200 µg/mL
same,Solubility in propylene glycol (PG),"[1]; propylene glycol, ambient temperature, listed as Maleate Salt of Free Base Pritelivir",5230 µg/mL
same,solubility at 22 h,[1]; [9],5000 to 6000 µg/mL
same,Solubility in water,[2],480 µg/mL
same,Relative solubility in FaSSIF,[4],essentially similar concentrations
same,Relative solubility in FeSSIF,[4],essentially similar concentrations
same,"% total peak area of the free base of pritelivir, irradiated solutions","[5]; 29 hours, total dose 2000 Wh/m^2",71.5%
"Cc1nc(N(C)C(=O)Cc2ccc(-c3ccccn3)cc2)sc1S(N)(=O)=O.O=S(=O)(O)c1ccccc1 [mono benzene sulfonate salt, N-methyl-N-(4-methyl-5-sulfamoylthiazol-2-VI)-2-(4-(pyridin-2-yl)phenyl)acetamide benzenesulfonate]",Relative solubility in FaSSIF,[4],essentially similar concentrations
same,Relative solubility in FeSSIF,[4],essentially similar concentrations
same,Stability in polyethylene glycol (in words),[3],showed stability
"CCS(=O)(=O)O.Cc1nc(N(C)C(=O)Cc2ccc(-c3ccccn3)cc2)sc1S(N)(=O)=O [mono ethane sulfonate salt, N-methyl-N-(4-methyl-5-sulfamoylthiazol-2-yl)-2-(4-(pyridin-2-yl)phenyl)acetamide ethanesulfonate]",solubility at 22 h,[1]; [9],5000 to 6000 µg/mL
same,solubility at 22 h,[2],175 to 606 µg/mL
same,Relative solubility in FaSSGF,"[4]; fasted state simulated gastric fluid, pH 1.6, 37° C.",highest relative solubility
same,Relative solubility in FaSSIF,[4],highest relative solubility
same,Relative solubility in FeSSIF,[4],highest relative solubility
"Cc1nc(N(C)C(=O)Cc2ccc(-c3ccccn3)cc2)sc1S(N)(=O)=O.O=S(=O)(O)O [sulfate salt, N-methyl-N-(4-methyl-5-sulfamoylthiazol-2-yl)-2-(4-(pyridin-2-yl)phenyl)acetamide Sulfate]",solubility at 22 h,[1]; organic solvent or mixture,12500 µg/mL
same,solubility at 22 h,[2],175 to 606 µg/mL
same,Stability in polyethylene glycol (in words),[3],showed stability
same,"% total peak area of the free base of pritelivir, dark control samples of the acidic solutions",[5],95.7%
CC(C)[C@H](N)C(=O)OCCOCn1cnc2c(=O)[nH]c(N)nc21 [valacyclovir],Risk of transmission of genital herpes,HSV-2,significantly reduces the risk of transmission
"N-methyl-N-(4-methyl-5-sulfamoylthiazol-2-yl)-2-(4-(pyridin-2-yl)phenyl)acetamide hemiethane-1,2-disulphonate [hemi ethane-1,2-disulfonate salt]","% total peak area of the free base of pritelivir, dark control samples of the acidic solutions",[5],94.7%
